# Data as given in US5294609A, “DNA gyrase inhibitors and pharmaceutical preparations therefor” (Hoffmann-LaRoche Inc., priority 1991, dated 1994).
# How the values were obtained:
# [1] = target: T1, DNA gyrase (Escherichia coli, UniProt P0AES6); assay: Inhibition of DNA gyrase activity (DNA gyrase supercoiling assay); assay type: biochemical, E. coli H560; settings: relaxed PUC18 substrate
# T1 construct: supercoiling of relaxed pUC18 plasmid
# Description: The inhibition of DNA gyrase activity was measured using a DNA gyrase supercoiling assay according to R. Otter & N. Cozzarelli:Methods in Enzymology, Vol. 100, pp 171-180 (1983). DNA gyrase was isolated from E. coli H560, and relaxed PUC18 plasmed was used as substrate. The activities as regards inhibition of DNA gyrase activity, expressed as maximum non-effective concentration of the test compound (MNC in μg/ml) are compiled in the following Table 4: […]
# [2] = test system: E. coli DC2; assay: Antibacterial activity in vitro (MIC, agar dilution); assay type: cell-based; settings: Escherichia coli, agar dilution (BB2 + 1% Isovitalex + 7.5% sheep blood + metadione), inoculum 10^4 CFU/spot, read-out: minimum inhibitory concentration (MIC)
# [3] = test system: B. catarrhalis RA 117; assay: as above; assay type: cell-based; settings: Moraxella catarrhalis, RA117, agar dilution (BB2 + 1% Isovitalex + 7.5% sheep blood + metadione), inoculum 10^4 CFU/spot, read-out: minimum inhibitory concentration (MIC)
# Description: (§1) In the following table there are complied the minimum inhibitory concentrations (MIC; μg/ml) of some representative compounds of formula I against a series of pathogenic microorganisms.
# (§2) Agar dilution (BB2 + 1% Isovitalex + 7.5% sheep blood + metadione),
# (§3) Inoculum: 10^4 CFU/spot;
# [4] = test system: E. coli B; assay: as above; assay type: cell-based; settings: Escherichia coli, agar dilution (BB2 + 1% Isovitalex + 7.5% sheep blood + metadione), inoculum 10^4 CFU/spot, read-out: minimum inhibitory concentration (MIC)
# Description: as §1, §2, §3
# [5] = test system: S. aureus 25923; assay: as above; assay type: cell-based; settings: Staphylococcus aureus, agar dilution (BB2 + 1% Isovitalex + 7.5% sheep blood + metadione), inoculum 10^4 CFU/spot, read-out: minimum inhibitory concentration (MIC)
# Description: as §1, §2, §3
# [6] = test system: S. aureus 887; assay: as above; assay type: cell-based; settings: Staphylococcus aureus, agar dilution (BB2 + 1% Isovitalex + 7.5% sheep blood + metadione), inoculum 10^4 CFU/spot, read-out: minimum inhibitory concentration (MIC)
# Description: as §1, §2, §3
# [7] = test system: S. faecalis 6; assay: as above; assay type: cell-based; settings: Enterococcus faecalis, agar dilution (BB2 + 1% Isovitalex + 7.5% sheep blood + metadione), inoculum 10^4 CFU/spot, read-out: minimum inhibitory concentration (MIC)
# Description: as §1, §2, §3
# [8] = test system: S. pyogenes 15; assay: as above; assay type: cell-based; settings: Streptococcus pyogenes, agar dilution (BB2 + 1% Isovitalex + 7.5% sheep blood + metadione), inoculum 10^4 CFU/spot, read-out: minimum inhibitory concentration (MIC)
# Description: as §1, §2, §3
# [9] = test system: N. meningitidis 69480; assay: as above; assay type: cell-based; settings: Neisseria meningitidis, agar dilution (BB2 + 1% Isovitalex + 7.5% sheep blood + metadione), inoculum 10^4 CFU/spot, read-out: minimum inhibitory concentration (MIC)
# [10] = Physicochemical properties of compound Ia
# [11] = test system: strain NR0484; assay: Streptomycin sensitivity of strain NR0484; assay type: cell-based, Streptomyces sp. NR0484 (Streptomyces filipinensis); settings: Streptomyces, ISP medium No. Z (Difco), read-out: Streptomycin sensitivity (M.I.C.)
# Description: (§4) The taxonomic studies were done according to the procedure adopted by the International Streptomyces Project (ISP) using the media recommended by Shining, E. B. and D. Gottlieb (Method for characterization of Streptomyces species; Intern. J. Syst. Bact. 16:313-340, 1966) and by Waksman, S. A. (Classification, identification and description of genera and species; in The Actinomycetes Vol. II; The Williams and Wilkins Co., Baltimore, 1961). All cultures were incubated at 27° C. for 15 days. The colour scheme in the Colour Harmony Manual (4th ed., 1958; Container Corporation of America, Chicago) was used to describe the pigmentation of the colonies. Sodium chloride tolerance of the strains and their growth at various temperatures were tested on ISP medium No. 3 (Difco) containing 0.15% yeast extract; and streptomycin sensitivity of the strains were tested on ISP medium No. Z (Difco).
# [12] = test system: S. filipinensis IFO12860; assay: Streptomycin sensitivity of S. filipinensis IFO12860; assay type: cell-based; settings: Streptomyces filipinensis, IFO12860, read-out: Streptomycin sensitivity (M.I.C.)
# Description: as §4
SMILES,maximum non-effective concentration of the test compound (MNC) [1],MIC [2],MIC [3],MIC [4],MIC [5],MIC [6],MIC [7],MIC [8],MIC [9],further results
"COC(=O)[C@@H]1CSCc2c(O)cc(O)c(C)c2C(=O)OC[C@H](NC(=O)OC(C)(C)C)C(=O)N1 [Example 2, t-butyl (4R,7S)-1,3,4,5,6,7,8,10-octahydro-12,14-dihydroxy-4-methoxycarbonyl-11-methyl-6,10-dioxo-9,2,5-benzoxathiaazacyclododecine-7-carbamate]",0.1 µg/mL,–,–,–,–,–,–,–,–,maximum non-effective concentration of the test compound (MNC) ([1]; listed as 13): 0.05 µg/mL
"COC(=O)[C@@H]1CSCc2c(OC(C)=O)cc(OC(C)=O)c(C)c2C(=O)OC[C@H](N)C(=O)N1 [Example 5, methyl (4R,7S)-12,14-diacetoxy-7-amino-1,3,4,5,6,7,8,10-octahydro-11-methyl-6,10-dioxo-9,2,5-benzoxathiaazacyclododecine-4-carboxylate]",10 µg/mL,–,–,–,–,–,–,–,–,–
"CCOC(=O)[C@@H]1CSCc2c(O)cc(OC)c(C)c2C(=O)OC[C@H](NC(C)=S)C(=O)N1 [Example 102, ethyl (4R,7S)-1,3,4,5,6,7,8,10-octahydro-14-hydroxy-12-methoxy-11-methyl-6,10-dioxo-7-thioacetamido-9,2,5-benzoxathiaazacyclododecine-4-carboxylate]",0.25 µg/mL,64 µg/mL,2 µg/mL,64 µg/mL,16 µg/mL,8 µg/mL,16 µg/mL,8 µg/mL,2 µg/mL,–
"Cc1c(O)cc(O)c2c1C(=O)OC[C@H](NC(=O)OC(C)(C)C)C(=O)N[C@H](C(=O)O)CSC2 [Example 3, (4R,7S)-7-(L-t-butoxyformamido)-1,3,4,5,6,7,8,10-octahydro-12,14-dihydroxy-11-methyl-6,10-dioxo-9,2,5-benzoxathiaazacyclododecine-4-carboxylic acid]",5 µg/mL,–,–,–,–,–,–,–,–,–
"C=CCNC(=O)[C@@H]1CSCc2c(O)cc(OC)c(C)c2C(=O)OC[C@H](NC(=O)OC(C)(C)C)C(=O)N1 [Example 84, (4R,7S)-7-tert-butoxycarbonylamino-1,3,4,5,6,7,8,10-octahydro-14-hydroxy-l2-methoxy-11-methyl-6,10-dioxo-9,2,5-benzoxathiaazacyclododecine-4-carboxylic acid allylamide]",0.1 µg/mL,> 128 µg/mL,4 µg/mL,> 128 µg/mL,32 µg/mL,16 µg/mL,32 µg/mL,16 µg/mL,4 µg/mL,–
"Cc1c(O)cc(O)c2c1C(=O)OC[C@H](NC(=O)[C@@H]1[C@H](O)CCN1C(=O)[C@@H](N)CO)C(=O)N[C@H](C(=O)N[C@@H](C)C(=O)O)CSC2 [Example 12, N-[[(4R,7S)-1,3,4,5,6,7 8,10-octahydro-12,14-dihydroxy-7-[[(3R)-3-hydroxy-1-L-seryl-L-prolyl]amino]-11-methyl-6,10-dioxo-9,2,5-benzoxathiaazacyclododecin-4-yl]carbonyl]-L-alanine]",5 µg/mL,–,–,–,–,–,–,–,–,solubility (in words) [10]: water soluble
"CCOC(=O)[C@@H]1CSCc2c(O)cc(OC)c(C)c2C(=O)OC[C@H](NC=O)C(=O)N1 [Example 69, ethyl (4R,7S)-7-formamido-1,3,4,5,6,7,8,10-octahydro-14-hydroxy-12-methoxy-11-methyl-6,10-dioxo-9,2,5-benzoxathiaazacyclododecine-4-carboxylate]",0.05 µg/mL,16 µg/mL,4 µg/mL,32 µg/mL,128 µg/mL,32 µg/mL,16 µg/mL,4 µg/mL,–,–
[H]/N=C(/N)N[C@H]1[C@H](O)[C@@H](O)[C@H](O[C@@H]2O[C@@H](C)[C@](O)(C=O)[C@H]2O[C@@H]2O[C@@H](CO)[C@H](O)[C@@H](O)[C@@H]2NC)[C@@H](N/C(N)=N\[H])[C@@H]1O [Streptomycin],–,–,–,–,–,–,–,–,–,MIC [11]: 6300 µg/mL; MIC [12]: 6300 µg/mL
"Cc1c(O)cc(O)c2c1C(=O)OC[C@H](N)C(=O)N[C@H](C(=O)O)CSC2 [Example 4, (4R,7S)-7-amino-1,3,4,5,6,7,8,10-octahydro-12,14-dihydro-11-methyl-6,10-dioxo-9,2,5-benzoxathiaazacyclododecine-4-carboxylic acid]",1 µg/mL,–,–,–,–,–,–,–,–,–
"Cc1c(O)cc(O)c2c1C(=O)OC[C@H](N)C(=O)NCCSC2 [Example 9, (S)-7-amino-4,5,7,8-tetrahydro-12,14-dihydroxy-11-methyl-9,2,5-benzoxathiaazacyclododecine-6,10(1H,3H)-dione]",1 µg/mL,–,–,–,–,–,–,–,–,–
"COC(=O)[C@@H]1CSCc2c(O)cc(OC)cc2C(=O)OCCC(=S)N1 [Example 101, methyl (4R)-1,3,4,5,6,7,8,10-octahydro-14-hydroxy-12-methoxy-10-oxo-6-thioxo-9,2,5-benzoxathiaazacyclododecine-4-carboxylate]",0.1 µg/mL,64 µg/mL,4 µg/mL,64 µg/mL,16 µg/mL,16 µg/mL,32 µg/mL,16 µg/mL,8 µg/mL,–
"COC(=O)N[C@H]1COC(=O)c2c(C)c(OC)cc(O)c2CSC[C@@H](C(=O)OC)NC1=O [Example 137, Methyl (4R,7S)-1,3,4,5,6,7,8,10-octahydro-14-hydroxy-12-methoxy-4-methoxycarbonyl-11-methyl-6,10-dioxo-9,2,5-benzoxathiaazacyclododecine-7-carbamate]",0.2 µg/mL,64 µg/mL,4 µg/mL,64 µg/mL,128 µg/mL,32 µg/mL,64 µg/mL,8 µg/mL,8 µg/mL,–
"COC(=O)[C@@H]1CSCc2c(O)cc(OC)c(C)c2C(=O)OC[C@H](O)C(=O)N1 [Example 41, methyl (4R,7S)-1,3,4,5,6,7,8,10-octahydro-7,14-dihydroxy-12-methoxy-11-methyl-6,10-dioxo-9,2,5-benzoxathiaazacyclododecine-4-carboxylate]",0.1 µg/mL,–,4 µg/mL,128 µg/mL,32 µg/mL,32 µg/mL,32 µg/mL,16 µg/mL,8 µg/mL,–
"CO/N=C(\C(=O)N[C@H]1COC(=O)c2c(C)c(OC(C)=O)cc(OC(C)=O)c2CSC[C@@H](C(=O)OC)NC1=O)c1csc(N)n1 [Example 10, methyl (4R,7S)-12,14-diacetoxy-7-[(Z)-2-(2-amino-4-thiazolyl) -2-(methoxyimino)acetamido]-1,3,4,5,6,7,8,10-octahydro-11-methyl-6,10-dioxo-9,2,5-benzoxathiaazacyclododecine-4-carboxylate]",10 µg/mL,–,–,–,–,–,–,–,–,–
"COC(=O)[C@@H]1CSCc2c(O)cc(O)c(C)c2C(=O)OC[C@H](N)C(=O)N1 [Example 6, methyl (4R,7S)-7-amino-1,3,4,5,6,7,8,10-octahydro-12,14-dihydro-11-methyl-6,10-dioxo-9,2,5-benzoxathiaazacyclododecine-4-carboxylate]",2 µg/mL,–,–,–,–,–,–,–,–,–
